Assay results as given in patent US20050124579A1, “Benzyl alcohol derivatives” (priority 2002, published 2005).
≈ marks a conversion by molar mass, not a printed value.

Columns and labels:
[1] = test system: Staphylococcus aureus ATCC 6538; test: Determination of the minimum inhibition concentration (MIC value) in microtitre plates; assay type: cell-based; settings: CASO broth, 37° C., 48 hours, optical density at 620 nm, MIC = <20% growth vs growth control
Excerpt: (§1) Determination of the Minimum Inhibition Concentration (MIC Value) in Microtitre Plates Nutrient Medium: Casein-soy flour-peptone broth for the preparation of the precultures of the test bacteria and yeast. Examples of Test Microbes: Bacteria: Staphylococcus aureus ATCC 6538 • Escherichia coli NCTC 8196 (=EC) Procedure: The test substances are predissolved in dimethyl sulphoxide (DMSO) and tested in a dilution series of 1:2. The bacteria are cultivated overnight in CASO broth and sponged off with 10 ml of 0.85% sodium chloride solution (+0.1% TritonX-100). All of the test microbes are adjusted to a microbial count of 1-5×10^6 CFU/ml with 0.85% sodium chloride solution. The test substances are prepipetted at 8 μl per well into microtitre plates. Prediluted microbial suspensions are diluted 1:100 in CASO broth and added at 192 μl per well to the test substances. The test mixtures are incubated at 37° C. for 48 hours. After incubation, the growth is determined by reference to the clouding of the test mixtures (optical density) at 620 nm in a microplate reader. The minimum inhibition concentration (MIC value) is the concentration of substance at which (compared with the growth control) a significant growth inhibition (<20% growth) of the test microbes is established. One microtitre plate is prepared per test microbe and substance concentration. All of the substances are tested in duplicate.

[2] = test system: Escherichia coli NCTC 8196; test: as above; assay type: cell-based; parameters: unit not given here; settings: CASO broth, 37° C., 48 hours, optical density at 620 nm; MIC = <20% growth vs growth control
Excerpt: as §1

MIC Staphylococcus aureus [1] [ppm] | MIC Escherichia coli [2] | MIC ([1]; Staphylococcus aureus, ATCC6538) [µg/mL] | Structure (SMILES)
60 | 60 |  | CCCCCC(C)Oc1ccc(OC)cc1CO (stereo not drawn) [(23)]
60 | 60 |  | COc1ccc(OC2CCCCC2)c(CO)c1 [(24)]
120 | 120 |  | COc1ccc(OCc2ccccc2)c(CO)c1 [(25)]
15 | 15 |  | CCCCCCCCOc1cccc(OC)c1CO [(26)]
30 | 60 |  | CCCCCCCCOc1c(CO)cccc1OC [(27)]
30 | 30 |  | CCCCCCCCOc1ccc(CO)cc1OC [(28)]
120 | >120 |  | C=CC[Si](C)(C)COc1ccc(CO)cc1OC[Si](C)(C)CC=C [(29)]
60 | 60 |  | CCCCCCCCOc1ccc(CO)cc1OCCCCCCCC [(30)]
120 | >120 |  | CCCCCCCCCCCCOc1ccc(CO)cc1OCCCCCCCCCCCC [(31)]
60 | >120 |  | CCCCCCCCCCCCOc1ccc(CO)c(OCCCCCCCCCCCC)c1 [(32)]
15 | >120 |  | OCc1ccc(OC2CCCCC2)cc1OC1CCCCC1 [(33)]
120 | 60 |  | CCCCCCCCOc1ccc(OCCCCCCCC)c(CO)c1 [(34)]
60 | 120 |  | CCCCCCCCCCCCOc1ccc(OCCCCCCCCCCCC)c(CO)c1 [(35)]

Continued, compound first:

Structure (SMILES) | MIC Staphylococcus aureus [1] [ppm] | MIC Escherichia coli [2] | MIC ([1]; Staphylococcus aureus, ATCC6538) [µg/mL]
C[Si](C)(C)CCCOc1ccccc1CO [(3)] | 60 | >120 | 
C[Si](C)(C)COc1ccccc1CO [(4)] | 120 | >120 | 
CCCCCCCCOc1ccccc1CO [(5)] | 60 | >120 | 
CCC(CC)Oc1ccccc1CO [(6)] | 120 | >120 | 
CCCCCC(C)Oc1ccccc1CO (stereo not drawn) [(7)] | 120 | >120 | 
C[Si](C)(C)CCCOc1ccc(CO)cc1 [(8)] | 60 | 60 | 
COCCOCCOc1ccc(CO)cc1 [(9)] | 30 | 60 | 
CCCCCCOc1ccc(CO)cc1 [(10)] | 120 | 60 | 
CCCCCCCCOc1ccc(CO)cc1 [(11)] |  | 15 | 15 (≈ 63.5 µM)
C[Si](C)(C)CCCOc1cccc(CO)c1 [(12)] | 60 | 60 | 
C[Si](C)(COc1cccc(CO)c1)c1ccccc1 [(13)] | 60 | >120 | 
CCCCCCCCOc1cccc(CO)c1 [(14)] | 15 | 30 | 
CCCCCC(C)Oc1cccc(CO)c1 (stereo not drawn) [(15)] | 120 | 120 | 
COc1ccc(OCCC[Si](C)(C)C)c(CO)c1 [(16)] | 15 | >120 | 
COc1ccc(OC[Si](C)(C)C)c(CO)c1 [(17)] | 60 | 60 | 
COc1ccc(OCCOc2ccccc2)c(CO)c1 [(18)] | 120 | 60 | 
CCCCOc1ccc(OC)cc1CO [(19)] | 120 | 60 | 
CCCCCCOc1ccc(OC)cc1CO [(20)] | 60 | 60 | 
CCCCCCCCOc1ccc(OC)cc1CO [(21)] | 30 | 30 | 
CCC(CC)Oc1ccc(OC)cc1CO [(22)] | 60 | 60 | 
